From patent publication US10000471B2, “Pyrazole P38 map kinase inhibitors” (Respivert Limited, priority 2010, dated 2018)
pEC50, pIC50: −log10 of the molar value.

How the values were obtained:
[1] = test system: TNFα release in THP-1 cells; test: LPS-induced TNFα release in THP-1 cells; type: cell-based, human; conditions: Homo sapiens
Procedure, shortened: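 IC50 derived from concentration-response of TNFα inhibition relative to vehicle, with TNFα quantified by sandwich ELISA in supernatants. THP-1 cells were challenged 4 hr with LPS (E. coli, 3 μg/mL).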

[2] = test system: Differentiated U937 cells; test: Cell viability MTT assay; type: cell-based, human; conditions: negative = apparent increase in viability; for MTT Assay (Viability) 4 h d-U937, percentage loss of cell viability: 4 hr in 5% FCS; for MTT Assay (Viability) 24 h d-U937, percentage loss of cell viability: 24 h in 10% FCS
Procedure, shortened: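 Differentiated U937 cells pre-incubated with compound either 4 hr in 5% FCS or 24 h in 10% FCS, then 1 hr MTT. Formazan dissolved in DMSO, absorbance at 550 nm. Percentage viability loss relative to 0.5% DMSO vehicle; apparent increases appear as negative percentages.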

[3] = test system: ICAM-1 induction in BEAS2B cells; test: Poly I:C-induced ICAM-1 induction in BEAS2B cells; type: cell-based, human; conditions: Homo sapiens, BEAS-2B, read-out: PolyIC/ICAM1 IC50 BEAS2B
Procedure, shortened: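 IC50 reflects inhibition of cell-surface ICAM-1 relative to vehicle, read by ELISA (OD450 against 655 nm) and divided by crystal violet OD595 for cell number. Readings were taken 18 hr after transfection of 1 μg/mL poly I:C into BEAS2B cells. Compound was added 2 hr before stimulation.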

[4] = target: T1, p38 MAPKα isoform (MAPK14) (Homo sapiens, UniProt Q16539); test: Enzyme inhibition assay (FRET, Z-LYTE), p38 MAPKα via MAPKAP-K2 activation; type: biochemical; conditions: read-out: Enzyme Inhibition IC50 p38α
T1 construct: purchased Invitrogen
T1 sequence (Q16539 whole entry, canonical isoform): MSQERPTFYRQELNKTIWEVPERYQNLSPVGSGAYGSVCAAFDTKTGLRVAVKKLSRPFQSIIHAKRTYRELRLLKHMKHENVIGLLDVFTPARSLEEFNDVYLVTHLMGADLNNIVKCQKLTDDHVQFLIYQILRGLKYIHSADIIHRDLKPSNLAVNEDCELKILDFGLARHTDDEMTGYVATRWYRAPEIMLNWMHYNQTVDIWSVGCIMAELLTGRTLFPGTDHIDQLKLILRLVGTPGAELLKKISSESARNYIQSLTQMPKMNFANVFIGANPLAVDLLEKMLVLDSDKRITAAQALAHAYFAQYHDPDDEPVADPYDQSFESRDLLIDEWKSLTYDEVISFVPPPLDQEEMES
Procedure, shortened: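 Z-LYTE FRET format, in which protease cleaves only non-phosphorylated peptide, read after 1 h development. Compound was mixed with p38 MAPKα for 2 h at RT, and inhibition was gauged from MAPKAP-K2 activation/phosphorylation rather than directly. Percent inhibition against an uninhibited control was fitted to give IC50.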

p38 MAPKγ (MAPK12) = target: T2, p38 MAPKγ (MAPK12) (Homo sapiens, UniProt P53778); test: Enzyme inhibition assay (FRET, Z-LYTE), p38 MAPKγ; type: biochemical; conditions: read-out: Enzyme Inhibition IC50 p38γ
T2 construct: purchased Invitrogen
T2 sequence (P53778 1-367): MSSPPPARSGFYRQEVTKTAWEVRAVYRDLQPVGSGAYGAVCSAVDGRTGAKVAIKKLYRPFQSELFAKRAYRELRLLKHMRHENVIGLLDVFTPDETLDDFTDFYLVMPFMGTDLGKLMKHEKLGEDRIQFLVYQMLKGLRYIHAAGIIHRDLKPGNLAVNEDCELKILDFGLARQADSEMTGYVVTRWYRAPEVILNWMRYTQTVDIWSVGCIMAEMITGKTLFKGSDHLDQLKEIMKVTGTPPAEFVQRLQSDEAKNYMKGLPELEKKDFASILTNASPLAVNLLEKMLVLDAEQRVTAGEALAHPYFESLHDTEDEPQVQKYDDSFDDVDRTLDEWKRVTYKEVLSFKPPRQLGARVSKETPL
Procedure, shortened: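 Z-LYTE FRET readout: after 1 h kinase reaction (ATP 100 μM, peptide 2 μM) following 2 h RT enzyme–compound preincubation in HEPES, protease cleaves only unphosphorylated peptide. Percent inhibition from donor/acceptor ratio relative to control; IC50 fitted from the curve.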

[5] = test system: TNFα release in d-U937 cells; test: LPS-induced TNFα release in d-U937 cells; type: cell-based, human; conditions: Homo sapiens, dU937, relative to 10 μg/mL BIRB796, read-out: LPS/TNFα REC50 d-U937
Procedure, shortened: (§1)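 Sandwich ELISA of TNFα and IL-8 in supernatants after 4 hr 0.1 μg/mL LPS (E. coli O111:B4) challenge of U937 cells differentiated with PMA 100 ng/ml for 48–72 hr, compound added 2 hr beforehand. IL-8: IC50 from inhibition versus vehicle; TNFα: REC50 from inhibition as percentage of 10 μg/mL BIRB796 effect.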

[6] = test system: IL-8 release in d-U937 cells; test: LPS-induced IL-8 release in d-U937 cells; type: cell-based, human; conditions: Homo sapiens, dU937
Procedure, shortened: as §1

Row | Structure (SMILES) | pIC50 [1] | MTT Assay (Viability) 4 h d-U937, percentage loss of cell viability [2] | MTT Assay (Viability) 24 h d-U937, percentage loss of cell viability [2] | pIC50 [3] | pIC50 [4] | pIC50 (p38 MAPKγ (MAPK12)) | pEC50 [5] | pIC50 [6]
1 | COCC(=O)Nc1cc(Oc2ccc(NC(=O)Nc3cc(C(C)(C)C)nn3-c3ccc(O)cc3)c(Cl)c2Cl)ccn1 [Example 41, N-(4-(4-(3-(3-tert-butyl-1-(4-hydroxyphenyl)-1H-pyrazol-5-yl)ureido)-2,3-dichlorophenoxy)pyridin-2-yl)-2-methoxyacetamide] | 9.52 | −24.0% | 76.5% | 8.85 | 7.26 | 7.33 | 9.70 | 8.80
2 | CC(C)(C)c1cc(NC(=O)Nc2ccc(Oc3ccnc(NC(=O)N4CCCC4)c3)c(Cl)c2Cl)n(-c2ccc(CO)cc2)n1 [Example 77, N-(4-(4-(3-(3-tert-butyl-1-(4-hydroxymethylphenyl)-1H-pyrazol-5-yl)ureido)-2,3-dichlorophenoxy)pyridin-2-yl)pyrrolidine-1-carboxamide] | 9.40 | −8.8% | 53.3% | 8.60 | 7.74 | 7.61 | 9.70 | 9.40
3 | COCC(=O)Nc1cc(Oc2ccc(NC(=O)Nc3cc(C(C)(C)C)nn3-c3ccc(C)cc3)c(Cl)c2C#N)ccn1 [Example 4, N-(4-(4-(3-(3-tert-Butyl-1-p-tolyl-1H-pyrazol-5-yl)ureido)-3-chloro-2-cyanophenoxy)pyridin-2-yl)-2-methoxyacetamide] | 9.70 | −24.1% | 64.5% | 8.96 | 8.35 | 6.62 | 10.00 | 10.00
4 | CNC(=O)Nc1cc(COc2ccc(NC(=O)Nc3cc(C(C)(C)C)nn3-c3ccc(OC)cc3)c(Cl)c2Cl)ccn1 [Example 18, 1-(3-tert-Butyl-1-(4-methoxyphenyl)-1H-pyrazol-5-yl)-3-(2,3-dichloro-4-((2-(3-methylureido)pyridin-4-yl)methoxy)phenyl)urea] | 8.33 | 39.5% | −4.6% | 6.47 | 7.53 | < 4.79 | 8.17 | 7.32
5 | COc1ccc(-n2nc(C(C)(C)C)cc2NC(=O)Nc2ccc(Oc3ccnc(NC(=O)CN(C)C)c3)c(Cl)c2Cl)cc1 [Example 43, N-(4-(4-(3-(3-tert-butyl-1-(4-methoxyphenyl)-1H-pyrazol-5-yl)ureido)-2,3-dichlorophenoxy)pyridin-2-yl)-2-(dimethylamino)acetamide] | 9.40 | −18.7% | 79.1% | 8.64 | 7.56 | 7.11 | 9.05 | 8.89
6 | COc1ccc(-n2nc(C(C)(C)C)cc2NC(=O)Nc2ccc(Oc3ccnc(NC(=O)NCCN4CCOCC4)c3)c(Cl)c2Cl)cc1 [Example 68, 1-(4-(4-(3-(3-tert-butyl-1-(4-methoxyphenyl)-1H-pyrazol-5-yl)ureido)-2,3-dichlorophenoxy)pyridin-2-yl)-3-(2-morpholinoethyl)urea] | 8.85 | 11.3% | 73.3% | 8.48 | 7.74 | 6.86 | 9.70 | 7.99
7 | COCC(=O)Nc1cc(COc2ccc(NC(=O)Nc3cc(C(C)(C)C)nn3-c3ccc(OC)cc3)c3cccnc23)ccn1 [Example 17, N-(4-((5-(3-(3-tert-Butyl-1-(4-methoxyphenyl)-1H-pyrazol-5-yl)ureido)quinolin-8-yloxy)methyl)pyridin-2-yl)-2-methoxyacetamide] | < 5.78 | −11.5% | 4.0% | < 5.78 | 7.27 | < 4.78 | 4.79 | 4.77
